From patent publication US20020174455A1, “Sustained totipotent culture of selected monocot genera” (priority 2001, published 2002)

How the values were obtained:
[1] = test system: A. donax explants; assay: Phosphinothricin selection of explants with or without Agrobacterium tumefaciens cocultivation (Example 3); assay type: cell-based, Arundo donax L.; conditions: 10 mg/l
Experimental: Cross-sectional segment of immature A. donax inflorescence were prepared and cultivated as described in Example 2. The totipotent tissue was cocultivated with Agrobacterium tumefaciens carrying plasmid pMSF3022, which carried the bar gene for positive selection in plant cells. The gene confers resistance to the antibiotic/herbicide phosphinothricin.
Cocultivation was carried out in 6 ml. of liquid primary culture medium for four days in the dark at room temperature. Explants were then rinsed with liquid medium and placed on solid selective and non-selective control medium containing the antibiotic/herbicide phosphinothricine at 10 mg/l. All medium contained tidarcillin at 400 mg/l to eliminate residual A. tumefaciens. Controls includes explants incubated without A. tumefaciens. […] This can be contrasted with control explants (which were not contacted with A. tumefaciens) that were killed by 10 mg/l of phosphinothricin (FIG. 3A). Also shown are control explants that have developed callus in the absence of phosphinothricin (FIG. 3B), and cocultivated explants that have developed callus in the absence of phosphinothricin (FIG. 3D).

[2] = test system: cloned A. donax plants (roots); assay: Trichloroethene challenge of cloned plants in phytoreactor (Example 4); assay type: in vivo, Arundo donax L.; conditions: 0.25 mM in hydroponic solution; after a recovery period of 3 to 4 weeks
Experimental: Sustained titopotent cultures of A donax were grown as described in Example 2, and cloned plants derived from the titopotent tissues were established in a standard liquid hydroponic solution in plastic tubs (Shown in FIG. 4 A). In one phytoreactor tub, trichloroethene (trichloroethylene) was added to a concentration of 0.25 mM. This was believed to be a high concentration of the organic material, because the allowable EPA concentration is 0.005 mg/l.

SMILES	effect on control explants (not contacted with A. tumefaciens) [1]	state of roots of challenged plants [2]
CP(=O)(O)CC[C@H](N)C(=O)O [phosphinothricin]	killed	–
ClC=C(Cl)Cl [trichloroethene]	–	fully recovered
